Measurements from US20220249441A1, “Homodimeric Tobramycin Adjuvant Repurposes Novobiocin as an Effective Antibacterial Agent Against Gram-Negative Bacteria” (priority 2019, published 2022).
In brackets after ≈: the same amount, converted by molar mass.

What was measured:
[1] = tested on: P. aeruginosa PAO1 and efflux deficient mutants, MDR/XDR isolates; test: microbe, parasite or virus in culture; format: cell-based, Pseudomonas aeruginosa
Method: Antimicrobial Susceptibility Assay. The in vitro antimicrobial activity of all compounds/antibiotics against a panel of bacteria was evaluated by microbroth dilution method in accordance with the Clinical and Laboratory Standards Institute (CLSI) guidelines (using ATCC strains as quality control strains) (54). […] The broth with or without bacterial cells was used as positive or negative control, respectively.

[2] = tested on: panel of Gram-positive and Gram-negative bacteria; test: Antimicrobial susceptibility assay against a panel of bacteria; format: cell-based; settings: some isolates
Method: (§1) Antimicrobial Susceptibility Assay. The in vitro antimicrobial activity of all compounds/antibiotics against a panel of bacteria was evaluated by microbroth dilution method in accordance with the Clinical and Laboratory Standards Institute (CLSI) guidelines (using ATCC strains as quality control strains) (54). Overnight grown bacterial cultures were diluted in saline to achieve a 0.5 McFarland turbidity, followed by 1:50 dilution in Mueller-Hinton broth (MHB) for inoculation to a final concentration of approximately 5×10^5 CFU/mL. […] The lowest concentration that prevented the visible growth of bacteria was defined as the MIC for each antimicrobial agent. The broth with or without bacterial cells was used as positive or negative control, respectively.

[3] = tested on: P. aeruginosa; test: Checkerboard assay (antibiotic + adjuvant combination MIC); format: cell-based, Pseudomonas aeruginosa; settings: compound at 8 μM
Method: as §1
Checkerboard Assay. Combination studies with different antibiotics were performed in 96-well plates as previously described (19). Briefly, the antibiotic of interest was serially diluted in MHB along the abscissa while the adjuvant (tobramycin homodimer) was serially diluted in MHB along the ordinate. This creates a 10×7 matrices wherein each well consists of a combination of different antibiotic and adjuvant concentrations. Overnight grown bacterial cultures were diluted in saline to achieve a 0.5 McFarland turbidity, followed by 1:50 dilution in Mueller-Hinton broth (MHB) for inoculation to a final concentration of approximately 5×10^5 CFU/mL. […] MIC was recorded as wells with the lowest concentration of drugs with no bacterial growth. The fractional inhibitory concentration (FIC) for each antibiotic was calculated by dividing the MIC of the antibiotic in the presence of adjuvant by the MIC of the antibiotic alone. Similarly, the FIC of adjuvant was calculated by dividing the MIC of the adjuvant in the presence of antibiotic by the MIC of the adjuvant alone. FIC index is the sum of both FICs. FIC indices of ≤0.5 were deemed synergistic; >0.5-4, no interaction; and >4, antagonistic.

[4] = tested on: porcine erythrocytes
Method: Hemolytic Assay. The hemolytic activities of the newly synthesized compounds were determined and quantified as the amount of hemoglobin released by lysing porcine erythrocytes. […] The final cell concentration used was 3×10^8 cells/mL. Compounds were serially diluted with PBS and added to wells in a 96-well plate at twice the desired concentrations. […] Intact erythrocytes were subsequently pelleted by centrifuging at 1000 g at 4° C. for 10 mins, and the supernatants were transferred to a new 96-well plate. […] Blood cells in PBS (0% hemolysis) and 0.1% Triton X-100 (100% hemolysis) were used as negative and positive controls, respectively. Percent hemolysis was calculated as [% hemolysis=(X−0%)/(100%−0%)], where X is the optical density values of the compounds at different concentrations (49).

`N=C(N)NC[C@H]1O[C@H](O[C@H]2[C@H](OCCCCCCCCCCCCN3CCN(c4cc5c(cc4F)c(=O)c(C(=O)O)cn5C4CC4)CC3)[C@@H](O[C@H]3O[C@H](CO)[C@@H](O)[C@H](NC(=N)N)[C@H]3O)[C@H](NC(=N)N)C[C@@H]2NC(=N)N)[C@H](NC(=N)N)C[C@@H]1O` [Compound 27, Guanidinylated Tobramycin-Ciprofloxacin Conjugate] was tested, and the MIC ([1]; PA0750 (efflux-deficient)) was 2 mg/L (≈ 1.7 µM), the MIC ([1]; PAO1 (wild-type)) was 32 mg/L (≈ 27.2 µM) and the MIC ([1]; PAO200 (second column so headed)) was 16 mg/L (≈ 13.6 µM). The intrinsic antimicrobial activity [2] was “some modest residual activity”, the MIC of Aztreonam + compound ([3]; P. aeruginosa PAO1) was 0.5 mg/L and the MIC of Ceftazidime + compound ([3]; P. aeruginosa PAO1) was 0.25 mg/L. The MIC of Imipenem + compound ([3]; P. aeruginosa PAO1) was 1 mg/L, the MIC of Piperacillin + compound ([3]; P. aeruginosa PAO1) was 8 mg/L and the MIC of ATM in the presence of compound ([3]; PA 259-96918) was 32 mg/L. It also gave an MIC of CAZ in the presence of compound ([3]; PA 259-96918) of 512 mg/L, an MIC of IPM in the presence of compound ([3]; PA 259-96918) of 64 mg/L and an MIC of ATM in the presence of compound ([3]; PA 260-97103) of 8 mg/L. For the same molecule, the MIC of CAZ in the presence of compound ([3]; PA 260-97103) was 16 mg/L, the MIC of IPM in the presence of compound ([3]; PA 260-97103) was 8 mg/L and the MIC of ATM in the presence of compound ([3]; PA 262-101856) was 32 mg/L. The MIC of CAZ in the presence of compound ([3]; PA 262-101856) was 16 mg/L, the MIC of IPM in the presence of compound ([3]; PA 262-101856) was 16 mg/L and the MIC of ATM in the presence of compound ([3]; PA 264-104354) was 32 mg/L. For the same molecule, the MIC of CAZ in the presence of compound ([3]; PA 264-104354) was 128 mg/L, the MIC of IPM in the presence of compound ([3]; PA 264-104354) was 16 mg/L and the MIC of ATM in the presence of compound ([3]; PA 86052) was 32 mg/L. It also gave an MIC of CAZ in the presence of compound ([3]; PA 86052) of 32 mg/L, an MIC of IPM in the presence of compound ([3]; PA 86052) of 16 mg/L and an MIC of ATM in the presence of compound ([3]; PA 88949) of 32 mg/L. For the same molecule, the MIC of CAZ in the presence of compound ([3]; PA 88949) was 32 mg/L, the MIC of IPM in the presence of compound ([3]; PA 88949) was 64 mg/L and the MIC of ATM in the presence of compound ([3]; PA 91433) was 16 mg/L. The MIC of CAZ in the presence of compound ([3]; PA 91433) was 4 mg/L, the MIC of IPM in the presence of compound ([3]; PA 91433) was 8 mg/L and the MIC of ATM in the presence of compound ([3]; PA 100036) was 16 mg/L. It also gave an MIC of CAZ in the presence of compound ([3]; PA 100036) of 6 mg/L, an MIC of IPM in the presence of compound ([3]; PA 100036) of 4 mg/L and an MIC of ATM in the presence of compound ([3]; PA 101243) of 4 mg/L. For the same molecule, the MIC of CAZ in the presence of compound ([3]; PA 101243) was 16 mg/L, the MIC of IPM in the presence of compound ([3]; PA 101243) was 4 mg/L and the MIC of ATM in the presence of compound ([3]; PA 101885) was 4 mg/L. It also gave an MIC of CAZ in the presence of compound ([3]; PA 101885) of 2 mg/L, an MIC of IPM in the presence of compound ([3]; PA 101885) of 2 mg/L and an MIC of ATM in the presence of compound ([3]; PA 107092) of 32 mg/L. The MIC of CAZ in the presence of compound ([3]; PA 107092) was 32 mg/L, the MIC of IPM in the presence of compound ([3]; PA 107092) was 32 mg/L and the MIC of ATM in the presence of compound ([3]; PA 108590) was 2 mg/L. It also gave an MIC of CAZ in the presence of compound ([3]; PA 108590) of 2 mg/L, an MIC of IPM in the presence of compound ([3]; PA 108590) of 4 mg/L and an MIC of ATM in the presence of compound ([3]; PA 109084) of 32 mg/L. The MIC of CAZ in the presence of compound ([3]; PA 109084) was 32 mg/L, the MIC of IPM in the presence of compound ([3]; PA 109084) was 16 mg/L and the MIC of ATM in the presence of compound ([3]; PA 114228) was 8 mg/L. It also gave an MIC of CAZ in the presence of compound ([3]; PA 114228) of 2 mg/L, an MIC of IPM in the presence of compound ([3]; PA 114228) of 1 mg/L and an MIC of ATM in the presence of compound ([3]; PA O200 (efflux-deficient)) of 0.06 mg/L. The MIC of CAZ in the presence of compound ([3]; PA O200 (efflux-deficient)) was 0.25 mg/L, the MIC of IPM in the presence of compound ([3]; PA O200 (efflux-deficient)) was 2 mg/L and the MIC of ATM in the presence of compound ([3]; PA O750 (efflux-deficient)) was 0.06 mg/L. The MIC of CAZ in the presence of compound ([3]; PA O750 (efflux-deficient)) was 0.25 mg/L, the MIC of IPM in the presence of compound ([3]; PA O750 (efflux-deficient)) was 1 mg/L and the MIC of ATM in the presence of compound ([3]; PAO1) was 0.5 mg/L. The MIC of CAZ in the presence of compound ([3]; PAO1) was 0.25 mg/L and the MIC of IPM in the presence of compound ([3]; PAO1) was 1 mg/L.
In the case of `NC[C@H]1O[C@H](O[C@H]2[C@H](OCCCCCCCCn3cc(CCCCO[C@@H]4[C@@H](O[C@H]5O[C@H](CO)[C@@H](O)[C@H](N)[C@H]5O)[C@H](N)C[C@H](N)[C@H]4O[C@H]4O[C@H](CN)[C@@H](O)C[C@H]4N)nn3)[C@@H](O[C@H]3O[C@H](CO)[C@@H](O)[C@H](N)[C@H]3O)[C@H](N)C[C@@H]2N)[C@H](N)C[C@@H]1O.O=C(O)C(F)(F)F.O=C(O)C(F)(F)F.O=C(O)C(F)(F)F.O=C(O)C(F)(F)F.O=C(O)C(F)(F)F.O=C(O)C(F)(F)F.O=C(O)C(F)(F)F.O=C(O)C(F)(F)F.O=C(O)C(F)(F)F.O=C(O)C(F)(F)F` [Compound 3, Tobramycin Homodimer 3], the “hemolysis of porcine erythrocytes” value [4] is reported as “non-hemolytic”.
